This is an account of results in patent US5684151A, “1-arylsulphonyl, arylcarbonyl and 1-arylphosphonyl-3-phenyl-1,4,5,6-tetrahydropyridazines” (priority 1995, dated 1997).

For assay [1], the system named is mouse (MC3T3-E1) and human (TE-85) osteoblast-line cells. Format: cell-based. The gist of the method:
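MC3T3-E1 or TE-85 cells were plated overnight in DMEM/25 mM HEPES/10% FBS and then preincubated 24 h in 0.1% FBS. Compounds were added for 20 h, followed by a 4 h pulse of 0.4 μCi ^3H-thymidine. Incorporated radioactivity served as the proliferation index, expressed as % of control (control = 100%).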

For assay [2], the target named is T1, progestin receptor from rabbit uterus (Oryctolagus cuniculus, UniProt P06186).
T1 construct: Cytosolic progestin receptor were obtained by mixing rabbit uterine tissue with a Tris buffer; from tissue; host or cells: rabbit uterus cytosol
Put plainly: Progestin receptor binding (3H-R5020 displacement). The following applies: rabbit uterine cytosol, 4° C., 18 h, read-out: IC50: Binding affinity for the progestin receptor from rabbit uterus. The method in brief:
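Rabbit uterine cytosol in Tris buffer pH 7.4 with EDTA, DTT and molybdate was incubated with 3H-R5020 and test compound (5% DMSO final) at 4 °C for about 18 h. Bound ligand was separated with dextran-coated charcoal and counted by scintillation; IC50 is 50% radioligand displacement, with nonspecific binding defined by excess unlabelled ligand.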

Read-outs that look alike come from different tables or passages of the source.

T1 sequence (P06186 whole entry): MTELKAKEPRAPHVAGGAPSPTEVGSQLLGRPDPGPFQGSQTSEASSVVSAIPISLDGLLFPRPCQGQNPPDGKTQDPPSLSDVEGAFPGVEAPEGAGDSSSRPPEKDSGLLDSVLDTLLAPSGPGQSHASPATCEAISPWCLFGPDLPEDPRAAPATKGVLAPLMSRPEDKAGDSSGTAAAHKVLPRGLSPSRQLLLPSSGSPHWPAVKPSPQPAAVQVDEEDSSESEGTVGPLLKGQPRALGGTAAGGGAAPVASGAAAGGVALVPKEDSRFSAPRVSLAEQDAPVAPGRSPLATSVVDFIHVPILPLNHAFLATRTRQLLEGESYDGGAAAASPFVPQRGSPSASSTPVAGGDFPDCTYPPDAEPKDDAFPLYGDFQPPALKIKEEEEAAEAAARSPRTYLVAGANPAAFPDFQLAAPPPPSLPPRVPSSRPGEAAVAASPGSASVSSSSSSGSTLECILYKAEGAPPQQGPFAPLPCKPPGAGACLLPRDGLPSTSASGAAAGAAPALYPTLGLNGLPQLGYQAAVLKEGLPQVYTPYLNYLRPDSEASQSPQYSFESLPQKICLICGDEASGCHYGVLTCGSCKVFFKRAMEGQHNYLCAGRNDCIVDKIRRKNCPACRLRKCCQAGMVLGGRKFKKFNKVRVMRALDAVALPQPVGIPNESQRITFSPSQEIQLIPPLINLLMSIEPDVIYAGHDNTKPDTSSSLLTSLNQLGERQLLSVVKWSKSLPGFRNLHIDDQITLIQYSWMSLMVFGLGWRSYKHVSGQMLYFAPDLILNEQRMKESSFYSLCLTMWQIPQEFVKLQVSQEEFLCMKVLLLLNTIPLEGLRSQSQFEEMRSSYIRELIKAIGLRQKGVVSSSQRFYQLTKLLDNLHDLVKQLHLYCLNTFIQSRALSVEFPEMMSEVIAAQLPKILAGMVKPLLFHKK

Usually IC50 stands for the concentration that gives 50% inhibition. Take `O=S(=O)(c1ccc2ccccc2c1)N1CCCC(c2ccc(-c3ccccc3)cc2)=N1` [Compound 85]: the “Osteoblast Cell Proliferation, 3H-thymidine incorporation vs control (100%)” value (shortened to “Osteoblast Cell Proliferation … (100%)”) was found to be 99% in assay [1] (10^-6); 80% in assay [1] (10^-7); 76% in assay [1] (10^-8); 54% in assay [1] (10^-9); 48% in assay [1] (10^-10). In addition, in assay [2], the IC50 worked out at 1000 nM.
Take `O=S(=O)(c1ccccc1)N1CCCC(c2ccc(-c3ccccc3)cc2)=N1` [Compound 86]: the “Osteoblast Cell Proliferation … (100%)” value in assay [1] (10^-6) is listed as 100%; in assay [1] (10^-7) it was 114%; in assay [1] (10^-8), 94%; in assay [1] (10^-9), 103%; in assay [1] (10^-10) it was 101%. Besides, in assay [2], the IC50 stood at 228 nM.
As to `Cc1ccc(S(=O)(=O)N2CCCC(c3ccc4c(c3)CCCC4)=N2)cc1` [Compound 87], the “Osteoblast Cell Proliferation … (100%)” value is reported as 120% in assay [1] (10^-6); 115% in assay [1] (10^-7); 125% in assay [1] (10^-8); 117% in assay [1] (10^-9); 127% in assay [1] (10^-10). Moreover, the IC50 in assay [2] came to 82.2 nM.
With `O=S(=O)(c1ccc(Cl)cc1)N1CCCC(c2ccc3c(c2)CCCC3)=N1` [Compound 88], the “Osteoblast Cell Proliferation … (100%)” value in assay [1] (10^-6) is listed as 97%; in assay [1] (10^-7), 109%; in assay [1] (10^-8), 89%; in assay [1] (10^-9), 74%; in assay [1] (10^-10), 62%. Further, the IC50 in assay [2] was 10.2 nM.
As to `O=S(=O)(c1cc(Cl)ccc1Cl)N1CCCC(c2ccc3c(c2)CCCC3)=N1` [Compound 89], the “Osteoblast Cell Proliferation … (100%)” value is reported as 115% in assay [1] (10^-6); 97% in assay [1] (10^-7); 113% in assay [1] (10^-8); 106% in assay [1] (10^-9); 98% in assay [1] (10^-10). Besides, in assay [2], the concentration for half-maximal inhibition (IC50) turned out to be 21.6 nM.
As for `O=S(=O)(c1ccccc1)N1CCCC(c2ccc3c(c2)CCCC3)=N1` [Compound 90], the “Osteoblast Cell Proliferation … (100%)” value is given as 90% in assay [1] (10^-6); 95% in assay [1] (10^-7); 68% in assay [1] (10^-8); 68% in assay [1] (10^-9); 42% in assay [1] (10^-10). Moreover, the IC50 in assay [2] was 71.7 nM.
In the case of `O=S(=O)(c1ccc2ccccc2c1)N1CCCC(c2cccc(Cl)c2)=N1` [Compound 94], the “Osteoblast Cell Proliferation … (100%)” value in assay [1] (10^-6) is 110%; in assay [1] (10^-7) it was 85%; in assay [1] (10^-8), 90%; in assay [1] (10^-9) it was 110%; in assay [1] (10^-10), 130%. The IC50 in assay [2] came to 14.6 nM.
On to `O=S(=O)(c1ccc(I)cc1)N1CCCC(c2ccc3c(c2)CCCC3)=N1` [Compound 113], for which the “Osteoblast Cell Proliferation … (100%)” value in assay [1] (10^-6) was 66%; in assay [1] (10^-7) it was 94%; in assay [1] (10^-8), 102%; in assay [1] (10^-9), 102%; in assay [1] (10^-10), 90%. In assay [2], the half-inhibitory concentration (IC50) is 27.6 nM.
As to `CC1CC(c2ccccc2)=NN(S(=O)(=O)c2cc(Cl)ccc2Cl)C1` (centres unmarked) [Compound 144], the “Osteoblast Cell Proliferation … (100%)” value in assay [1] (10^-7) is on record as 112%; in assay [1] (10^-8) it was 122%; in assay [1] (10^-9) it was 117%; in assay [1] (10^-10), 108%. Besides, the IC50 in assay [2] came out at 71.7 nM.
With `O=S(=O)(c1c(F)c(F)c(F)c(F)c1F)N1CCCC(c2ccc(F)cc2)=N1` [Compound 152, 3-(4-Fluorophenyl)-1-(pentafluorobenzenesulfonyl)-1,4,5,6-tetrahydropyridazine], the “Osteoblast Cell Proliferation … (100%)” value was 87% in assay [1] (10^-6); 123% in assay [1] (10^-7); 124% in assay [1] (10^-8); 149% in assay [1] (10^-9); 161% in assay [1] (10^-10). The IC50 in assay [2] was determined as 175 nM.
For `Nc1ccc(S(=O)(=O)N2CCCC(c3ccc(Cl)cc3)=N2)cc1` [Compound 153, 1-(4-Aminobenzenesulfonyl)-3-(4-chlorophenyl)-1,4,5,6-tetrahydropyridazine], the “Osteoblast Cell Proliferation … (100%)” value in assay [1] (10^-6) is 85%; in assay [1] (10^-7) it was 115%; in assay [1] (10^-8), 83%; in assay [1] (10^-9), 99%; in assay [1] (10^-10), 103%. The IC50 in assay [2] was determined as 636 nM.
On to `CC(=O)Nc1ccc(S(=O)(=O)N2CCCC(c3ccc(Cl)cc3)=N2)cc1` [Compound 154], for which the “Osteoblast Cell Proliferation … (100%)” value in assay [1] (10^-6) is listed as 97%; in assay [1] (10^-7), 111%; in assay [1] (10^-8), 107%; in assay [1] (10^-9), 124%; in assay [1] (10^-10), 115%. In addition, the half-maximal inhibitory concentration (IC50) in assay [2] was 819 nM.
For the compound `Cc1ccc(S(=O)(=O)N2N=C(c3ccccc3)CC3CCCC32)cc1` (centres unmarked) [Compound 156, 4,4a,5,6,7,7a-Hexahydro-3-phenyl-1-(4-methylbenzenesulfonyl)-1H-cyclopenta[c]pyridazine], the “Osteoblast Cell Proliferation … (100%)” value in assay [1] (10^-6) was 127%; in assay [1] (10^-7) it was 124%; in assay [1] (10^-8) it was 126%; in assay [1] (10^-9), 136%; in assay [1] (10^-10) it was 183%. Besides, the IC50 in assay [2] was found to be 1000 nM.
In the case of `Cc1ccc(S(=O)(=O)N2N=C(c3ccccc3)CC3C4C5C=CC(C5)C4CC32)cc1` (centres unmarked) [Compound 157, 1,4,4a,9a-Tetrahydro-1-(4-methylbenzenesulfonyl)-3-phenyl-bicyclo[2.2.1]hept-7-enyl[5.6-a]cyclopenta-[1.2-e]pyridazine], the “Osteoblast Cell Proliferation … (100%)” value in assay [1] (10^-6) was 107%; in assay [1] (10^-7), 108%; in assay [1] (10^-8) it was 113%; in assay [1] (10^-9) it was 111%; in assay [1] (10^-10), 128%. In assay [2], the IC50 was 750 nM.
In the case of `Cc1ccc(S(=O)(=O)N2N=C(c3ccccc3)CC3Cc4ccccc4C32)cc1` (centres unmarked) [Compound 158, 1,4,4a,9a,-Tetrahydro-4-(4-methylbenzenesulfonyl)-2-phenyl-3,4-diazafluorene Hemihydrate], the “Osteoblast Cell Proliferation … (100%)” value in assay [1] (10^-6) is given as 105%; in assay [1] (10^-7) it was 102%; in assay [1] (10^-8), 122%; in assay [1] (10^-9), 114%; in assay [1] (10^-10), 119%. Besides, in assay [2], the half-maximal inhibitory concentration (IC50) is 3000 nM.
Turning to `COC12CCCCC1CC(c1ccccc1)=NN2S(=O)(=O)c1ccc(C)cc1` (centres unmarked) [Compound 159, 1,4,4a,5,6,7,8,8a-Octahydro-8a-methoxy-1-(4-methyl-benzenesulfonyl)-3-phenyl-1,2-diazanapthalene], the “Osteoblast Cell Proliferation … (100%)” value is 97% in assay [1] (10^-6); 100% in assay [1] (10^-7); 91% in assay [1] (10^-8); 97% in assay [1] (10^-9); 105% in assay [1] (10^-10). The IC50 in assay [2] stood at 1380 nM.
For `Cc1ccc(S(=O)(=O)N2N=C(c3cccc(Br)c3)CC3C4C5C=CC(C5)C4CC32)cc1` (centres unmarked) [Compound 161, 1,4,4a,9a-Tetrahydro-1-(4-methylbenzenesulfonyl)-3-(3bromophenyl)bicyclo[2.2.1]hept-7-enyl[5.6-a]cyclopenta[1.2-e]pyridazine], the “Osteoblast Cell Proliferation … (100%)” value in assay [1] (10^-6) came out at 76%; in assay [1] (10^-7), 95%; in assay [1] (10^-8) it was 113%; in assay [1] (10^-9), 122%; in assay [1] (10^-10) it was 112%. In assay [2], the IC50 amounted to 3000 nM.
